From patent US20180064659A1, “AGENTS USEFUL FOR TREATING OBESITY, DIABETES AND RELATED DISORDERS” (The Regents of the University of California, priority 2015, published 2018) come the findings set out here.

One experiment relates to mice. Kind of experiment: Insulin tolerance test (ITT) and basal blood glucose in mice. In kind it is in vivo, mouse. The note with it: for Insulin sensitivity in vivo (ITT): PO 20 and 50 mg/kg in peanut butter, five days. How it is done: Insulin Tolerance Test (ITT) and Glucose Tolerance Test (GTT) Protocol for FIG. 2C: Groups of age/sex matched mice of Control and ShcKO genotypes were food deprived for four hours and challenged with I.P. injection of insulin, and glucose concentration was determined in blood exactly at indicated time-points. Decrease and recovery of blood glucose was calculated as a % of basal level (the time-point before insulin injection). Basal levels of glucose were measured in triplicate for each mouse. For the GTT, the same groups of mice were fasted during fourteen hours and challenged with glucose injection I.P., analogously the blood glucose concentrations were measured.
In-vivo drugs testing to improve the insulin sensitivity of periphery for FIG. 6D, E: Groups of mice, ten for the experimental drug treatment and 14 for the placebo treatment were subject for I.P. administration of a drug or placebo solutions daily during four days. Acarbose, a known drug which decreases blood glucose concentration was used as a control. The insulin tolerance test, ITT was performed on the mice as described previously, in Example 2.
Sensogramms were obtained, and response [nm] for each concentration was plotted against log concentration of idebenone. Sigmoidal, variable slope fitting analysis was performed using GraphPad Prism Software (GraphPad Software, Inc., La Jolla, Calif.). […] Cells were stimulated with 0.2 nM insulin for 10 minutes, and Western analyzed for induction of Akt and ERK. Insulin dependent activation of Akt is presented as fold change over vehicle control, and plotted against log concentration of idebenone; tubulin signal was used for normalization between biological samples. Sigmoidal dose-response (variable slope) fitting analysis was performed, EC50, hill slope, and top response were identified, as described above, and are indicated on the graph. p-value was calculated by testing R^2 for significance for N=65. […] Idebenone at indicated dose was given to animals 30 minutes before dark phase for five days. At the day of Insulin Tolerance Test (ITT) additional dose of idebenone was given to animals two hours prior to insulin injection. For ITT, the food was deprived at 7 am (the beginning of light phase), basal glucose was measured at 11 am, and insulin was administrated at 0.8 U/kg dose; blood glucose was recorded and expressed as % of baseline, and plotted against time. […] Software (CambridgeSoft Corporation, Waltham, Mass.), and virtually docked to Shc-PTB using iGEMDOCK software (BioXGEM Lab, National Chiao-Tung University Hsinchu, Taiwan, R.O.C), and, MOL file was generated. Three dimensional structure of PTB domain of Shc was obtained from Protein Data Bank (http://www.rcsb.org/).

Another experiment relates to phospho-Shc. Kind of experiment: Western blot of phospho-Shc. In kind it is cell-based. How it is done:
Assays to identify compounds useful for preventing, reducing, delaying or inhibiting symptoms of impaired insulin sensitivity, glucose intolerance or obesity can be performed in vitro. Candidate agents can be contacted with a population of test cells in the presence of insulin (e.g., 1 nM, 5 nM, 10 nM, 100 nM or more). An agent that prevents, reduces, delays or inhibits one or more symptoms of impaired insulin sensitivity, glucose intolerance or obesity increases the ratio of levels of phospho-Akt-1 over phospho-Erk relative to a control ratio. The increase in ratio of levels of phospho-Akt-1 over phospho-Erk can be determined in comparison to a control population of cells that have not been contacted with insulin or have been contacted with a low concentration of insulin (e.g., less than 0.1 nM) or a population of cells contacted with insulin but not with the compound under test. Ratio of levels of phospho-Akt-1 over phospho-Erk can be determined using a Western blot among other methods. Inhibition of Shc activity can be quantitatively measured by assaying the reduction of stimulatory Shc phosphorylation, using a phospho-Shc specific antibody. Inhibition of Shc expression can be measured using a Western blot. […]

Experiment [1] concerns insulin-dependent activation of Akt in FL83B mouse liver cells. The experiment is described as follows: Western blot of insulin-dependent phospho-Akt activation in FL83B cells. The note with it: for Insulin-dependent P-Akt signaling: Western blot. In kind it is cell-based. From the text: Western blot protocol of phospho-Akt (columns 2-4) and phospho-Erk (columns5-7). As explained above and in Example 4, Western blots of phospho-Akt and phospho-Erk are a more accurate and precise and quantitative measure of Akt phosphorylation than ICWB measurements. Insulin-dependent phospho-Akt is a direct measurement of insulin sensitivity, and we expect that Shc inhibitors will stimulate phospho-Akt more than phospho-Erk. All of the drugs listed in FIG. 5A stimulated insulin-dependent phospho-Akt at some concentration. Method. Mouse liver cells FL83B were plated at density of 400.000 cells per well of 6 well pate and cultivated for 48 hours, media was changed to DMEM, 25 mM glucose serum free and 16 hours later the cells were treated with drug at the indicated concentration for one hour. Control wells were treated with the vehicle (DMSO), in certain control wells the metabolic (Akt) insulin signaling was blocked with wortmannin. The cells were induced with indicated concentration of insulin for 10 minutes, total protein was extracted and the Western Blots were performed with indicated antibody as described above. […]
Sensogramms were obtained, and response [nm] for each concentration was plotted against log concentration of idebenone. […] Cells were stimulated with 0.2 nM insulin for 10 minutes, and Western analyzed for induction of Akt and ERK. […] Sigmoidal dose-response (variable slope) fitting analysis was performed, EC50, hill slope, and top response were identified, as described above, and are indicated on the graph. p-value was calculated by testing R^2 for significance for N=65. […] For ITT, the food was deprived at 7 am (the beginning of light phase), basal glucose was measured at 11 am, and insulin was administrated at 0.8 U/kg dose; blood glucose was recorded and expressed as % of baseline, and plotted against time. […]

Take `COc1cc2ncnc(Nc3ccc(Oc4ccccc4)cc3)c2cc1OC` [SrcI-1]: in the experiment on mice (2.5 mg/kg I.P. for 4 days), the Basal blood glucose entry is reported as “significantly decreased basal blood glucose” and the “Insulin sensitivity in-vivo (ITT)” value is on record as “increased insulin sensitivity in-vivo”. Also, the phospho-Shc activation result with phospho-Shc was “inhibited phospho-Shc activation in dose-dependent manner”. In addition, the “Insulin-dependent P-Akt signaling” value in experiment [1] was “stimulates insulin-dependent P-Akt signaling”.

As to `COC1=C(OC)C(=O)C(CCCCCCCCCCO)=C(C)C1=O` [idebenone], the “Insulin sensitivity in vivo (ITT)” value was “increased insulin sensitivity in vivo” in the experiment with mice and “significantly improving insulin sensitivity in-vivo” with mice (listed as Idebenone). In the experiment with phospho-Shc, the phospho-Shc activation entry is recorded as “decreased phospho-Shc in a dose-dependent manner”. For the same molecule, the EC50 in experiment [1] (Mus musculus, drug 1 hour, 0.2 nM insulin for 10 minutes, 65 points, read-out: EC50 of sensitizing cells to insulin (insulin dependent activation of Akt)) stood at 3.3 nM. In experiment [1], the “Insulin-dependent P-Akt signaling” value is reported as “increased insulin-dependent phospho-Akt activation in a dose-dependent manner”.
